From PMC6099102, “Effect of the Nature of Donor Atoms on the Thermodynamic, Kinetic and Relaxation Properties of Mn(II) Complexes Formed With Some Trisubstituted 12-Membered Macrocyclic Ligands” (Frontiers in Chemistry, 2018)
Like-named read-outs stand apart in the source and are kept apart here. Marks after values point to notes of the source that are not given here.

Columns and labels:
[1] = Protonation constants of the ligands by pH-potentiometric titration; assay type: physicochemical; conditions: for Σ log K2H: log K1H + log K2H
Protocol: (§1) The concentration of the ligand solutions was determined by pH-potentiometric titration in the presence and absence of an excess (5–10 fold) of MnCl2. For determining the protonation constants of the investigated ligands, pH-potentiometric titrations were made by means of 0.2 M standardized NaOH in 2 and 3 mM ligand solutions in the pH-range of 1.75–11.85. All equilibrium measurements were performed at a constant 0.15 M NaCl ionic strength at 25 °C. The protonation and the stability constants of the Mn(II) complexes were determined by pH-potentiometric titrations (DOTP, DO3A, PCTA, ODO3A, DO3P) while owing to the slow formation rates of Mn(II) complexes formed with amide type ligands, the stability constants of DOTAM, DOTMA, DO3AM^H, PC3AM^H, PC3AM^Gly, PC3AM^Pip complexes were determined by out-of-cell pH-potentiomertry in combination with ^1H relaxometry. The metal-to-ligand concentration ratio in the solutions was 1:1. For the calculation of protonation constants of the ligands and the log KMnL and log KMnLHi values of the complexes, mL–pH data pairs (50–180), obtained in the pH range of 1.75–11.85 or r1obs-pH data pairs (10–15 batch samples) obtained in the pH range of 2–4.5 were used (the samples were equilibrated for 4–7 days). The equilibrium constants characterizing the deprotonation that occurs at basic pH were determined from the data obtained via direct pH-potentiometric titrations performed on the pre-formed complexes.
(§2) The pH-potentiometric titrations were carried out with a Methrohm 888 Titrando titration workstation using a Metrohm-6.0233.100 combined electrode. The samples (6.00 mL) were thermostated at 25 °C. The samples were stirred and kept under inert gas (N2) to avoid the effect of CO2. KH-phthalate (pH = 4.005) and borax (pH = 9.177) buffers were used for the pH-calibration. The method proposed by Irving et al. was used for the calculation of H^+ concentrations from the measured pH values (Irving et al., [1967]). A 0.01 M HCl (I = 0.15 M set with NaCl) solution was titrated with standardized NaOH solution of known concentration (approx. 0.2 M). The correction factor obtained as difference of calculated pH and measured pH values was used to calculate the [H^+] in the samples. The ionic product of water was determined from the same titrations (HCl/NaOH) from the data collected in the pH range of 11.20–11.85.
The protonation and complexation equilibria of the macrocyclic ligands and their Mn(II) complexes have been studied by pH-potentiometric and relaxometric methods in the presence of 0.15 M NaCl whose ionic strength mimics the physiological conditions. The protonation constants of the ligands were evaluated by fitting the pH-V(mL) base data pairs collected in the pH-potentiometric titrations. The protonation equilibria of the ligands can be described by Equation (2). (a comparison of previously published log K^H data available in the Supplementary Material) together with the constants of H4DOTA, cis- and trans-H2DO2A derivatives given for comparison. (2) KiH=[HiL]/[Hi-1L][H^+],i=1,2,…

[2] = Stability and protonation constants and pMn of the Mn(II) complexes (pH-potentiometry and/or 1H relaxometry); assay type: physicochemical; conditions: I = 0.15 M NaCl, 25 °C; for pMn: calculated at pH = 7.4, cM = cL = 10^−5 M; for log KML: stability constant of the Mn(II) complex; for log KMLH: protonation constant of the Mn(II) complex; for log KMHLH: second protonation constant of the Mn(II) complex; for log KMH2LH: third protonation constant of the Mn(II) complex; for log KMLOH: ternary hydroxido complex of Mn(II)
Protocol: as §1, §2
The relaxometric data were collected using a Bruker Minispec MQ20 NMR relaxometer. […] A datapoint plotted on figures represents an average of 5–6 T1 measurements (Figures S3–S9 in Supplementary Material). The data were fitted by using the molar r1p relaxivity value of the MnCl2 ([…] at 0.49 T and 25 °C). The equilibrium constants were calculated using the PSEQUAD program (Zékány and Nagypál, [1985]).
In order to gain information on the thermodynamic stability of the Mn(II) complexes, samples containing the metal and ligand in 1 to 1 molar ratio were studied by pH potentiometry or ^1H-relaxometry and in some cases by a combination of the two methods. The titration data were fitted by assuming the existence of [M(L)] and some protonated species ([M(HiL)]) at lower pH values. In some cases to fit the data obtained at higher pH, the formation of ternary hydroxido complexes ([M(L)(OH)]) were also included in the equilibrium model. The stability constants (KML) and the various protonation forms (KMHiL) of ML metal chelates are defined by Equations (3)–(5). However, a comparison of the stabilities of different complexes solely on the basic of their stability constants might be misleading because of the differences in ligand basicities. […] The pMn value accounts for the effect of proton competition (ligand basicity and complex protonation) on the stability constant essentially offering the same information as the conditional stability constant. Higher pMn values indicate a higher chelate stability at specified conditions. […]

[3] = I = 0.1 M KCl, ref Forgács et al., [2016], cited from earlier work
[4] = I = 0.1 M KCl, ref Forgács et al., [2016], cited from earlier work; remark: listed apart in the source
[5] = Dissociation kinetics of the Mn(II) complexes (acid catalyzed dissociation, metal or ligand exchange reactions); assay type: physicochemical; conditions: replacement of >NH in DO3A by etheric oxygen
Protocol: The dissociation reactions were followed by UV-vis spectrophotometry at 269 nm for the pyclen derivatives or at 300 nm for other complexes in the pH range of 3.6–5.0 for the exchange reactions with Cu(II) and up to pH = 6.0 when Zn(II) was used as a ligand scavenger. The acid catalyzed dissociation reactions were performed in the HCl concentration range of 0.05–1.0 M. The concentration of the complexes in the samples was 0.25 mM, while the concentration of the exchanging metal ion in the metal initiated transchelation reactions was 10–40 times higher to ensure pseudo-first-order conditions. Relaxometry was used to follow the transchelation reactions of [Mn(DOTAM)]^2+, [Mn(DO3AM^H)]^2+, [Mn(DO3A)]^−, [Mn(PCTA)]^− and [Mn(ODO3A)]^− with Cu(II)/Zn(II) ions in the pH range of 3.6–5.5 (Figures S17–S19 in Supplementary Material). The concentration of the complexes in these samples was set to 1.0–2.0 mM to achieve relatively large change during the dissociation reaction. […] The temperature was maintained at 25 °C and the ionic strength of the solutions was kept constant at 0.15 M with NaCl. N,N′-dimethyl- (DMP) and N-methyl-piperazine (NMP) buffers (log K2H = 4.18 and 4.90 at 25 °C and I = 0.15 M NaCl, respectively) were used at 0.05 M concentration to keep the pH constant. The pseudo-first-order rate constants (kobs) were calculated by fitting the absorbance or relaxivity-time data pairs to Equation (1) (1) Xt=(X0-Xe)e^-kobst+Xe where Xt, X0, and Xe are the absorbance or relaxivity at time t, at the start and at equilibrium, respectively. The calculations were performed with the computer program Micromath Scientist, version 2.0 (Salt Lake City, UT, USA) using a standard least-squares procedure.
The kinetic inertness of the Mn(II) complexes is the other important parameter for the complexes considered for use in vivo. The inertness of Mn(II) complexes formed with trisubstituted 12-memberd macrocyclic ligands were characterized either by studying the rates of acid catalyzed dissociation or by studying transmetallation reactions occurring between the complexes and a suitable exchanging metal ion such as Zn(II) or Cu(II). The demetallation reactions of labile complexes were performed at high pH by following the ligand exchange reactions with trans-CDTA and DTPA ligands. The demetallation reactions were studied in the presence of a large Cu(II)/Zn(II)/trans-CDTA/DTPA excess or by using high acid concentration in order to ensure pseudo-first-order conditions (Equation 6). Scheme 1 outlines all the possible dissociation pathways for the Mn(II) complexes. […] The reactions of the released Mn(II) and L ligand with the exchanging L' and M' reactants are assumed to be very rapid.
The rate of dissociation can be expressed by the Equation (6), where kobs is the pseudo-first-order rate constant and [Mn(L)]t is the total concentration of the species containing [Mn(L)] complex. The [Mn(L)]t will differ slightly depending on the experimental conditions (in the presence of a large metal or ligand excess). As [Mn(L)]t = [Mn(L)] + [Mn(HL)] + [Mn(H2L)] + [Mn(L)M] + [Mn(L)(L')] + [Mn(HL)(L')] for reactions performed at high pH (in the pH range of 3.0–5.0 often applied in Cu(II) exchange reactions) will involve fewer protonated species while the acid catalyzed dissociation reactions run in the strongly acidic media (0.1–1.0 M acid concentration range) predominantly contain protonated species ([Mn(L)]t = [Mn(L)]+[Mn(HL)]+[Mn(H2L)]). (6) -d[MnL]t/dt=kobs[MnL]t
By taking into account the various complex species and the possible reaction pathways as well as the protonation and stability constants of the reactive intermediates, the following equation (Equation 7) can be derived to describe the rates of dissociation. […]

[6] = ligand protonation constant, I = 0.15 M NaCl, 25 °C
[7] = buffer, 25 °C and I = 0.15 M NaCl

With `NC(=O)CN1CCNCCN(CC(N)=O)CCN(CC(N)=O)CC1` [DO3AM^H] the “log K1H” value [1, 6] was 9.40 (5), the “log K2H” value [1, 6] was 6.28 (8) and the “Σ log K2H” value ([1]; I = 0.15 M NaCl, 25 °C) was 15.68. For the same molecule, the pMn [2] was 7.32 and the “log KML” value [2] was 11.69 (2).
For `CN(C)C(=O)CN1CCNCCNCCN(CC(=O)N(C)C)CC1` [cis-DO2AM^Me2], the “log KML” value ([3]; Mn(II) complex) is given as 12.64, the pMn ([3]; pH = 7.4, cM = cL = 10^−5 M) is given as 6.98 and the “log K1H” value [4] is given as 10.14. For the same molecule, the “log K2H” value [4] was 8.38 and the “Σ log K2H” value ([4]; log K1H + log K2H) was 18.52.
For `O=C(O)CN1CCOCCN(CC(=O)O)CCN(CC(=O)O)CC1` [ODO3A], the “log K1H” value [1, 6] was 8.74 (2), the “log K2H” value [1, 6] was 7.58 (2) and the “log K3H” value [1, 6] was 3.99 (3). The “log K4H” value [1, 6] was 2.39(3), the “Σ log K2H” value ([1]; I = 0.15 M NaCl, 25 °C) was 16.32 and the “increase in the k1 value of the Mn(II) complex relative to DO3A” value [5] was 50 fold. For the same molecule, the pMn [2] was 8.57, the “log KMLH” value [2] was 2.77 (5) and the “log KML” value [2] was 13.88 (1).
In the case of `CN1CCN(C)CC1` [DMP, reference compound], the “log K2H” value [1, 7] is reported as 4.18.
In the case of `CN1CCNCC1` [NMP, N-methyl-piperazine, reference compound], the “log K2H” value [1, 7] is reported as 4.90.
In the case of `O=P(O)(O)CN1CCN(CP(=O)(O)O)CCN(CP(=O)(O)O)CCN(CP(=O)(O)O)CC1` [DOTP], the “log K1H” value ([1]; ligand protonation constant by 1H- and 31P-NMR, I = 0.15 M NaCl, 25 °C) is reported as 13.6 (2)^[a], the “log K2H” value [1, 6] is reported as 12.23 (3) and the “log K3H” value [1, 6] is reported as 8.63 (5). The “log K4H” value [1, 6] was 7.45 (4), the “log K5H” value [1, 6] was 5.84 (5) and the “log K6H” value [1, 6] was 5.02 (5). For the same molecule, the “Σ log K2H” value ([1]; I = 0.15 M NaCl, 25 °C) was 25.83, the pMn [2] was 6.43 and the “log KMLH” value [2] was 8.09 (1). For the same molecule, the “log KMHLH” value [2] was 7.79 (1), the “log KML” value [2] was 18.98 (1) and the “log KMH2LH” value [2] was 6.74 (1).
With `O=C(CN1CCN(CC(=O)N2CCCCC2)Cc2cccc(n2)CN(CC(=O)N2CCCCC2)CC1)N1CCCCC1` [PC3AM^Pip] the “log K1H” value [1, 6] was 8.74 (1), the “log K2H” value [1, 6] was 5.77 (2) and the “log K3H” value [1, 6] was 1.42 (9). The “Σ log K2H” value ([1]; I = 0.15 M NaCl, 25 °C) was 14.51, the pMn [2] was 8.86 and the “log KML” value [2] was 14.05 (2). For the same molecule, the “log KMLOH” value [2] was 11.63 (2).
With `O=C(O)CNC(=O)CN1CCN(CC(=O)NCC(=O)O)Cc2cccc(n2)CN(CC(=O)NCC(=O)O)CC1` [PC3AM^Gly] the “log K1H” value [1, 6] was 8.85 (1), the “log K2H” value [1, 6] was 4.55 (1) and the “log K3H” value [1, 6] was 3.81 (1). For the same molecule, the “log K4H” value [1, 6] was 3.21 (1), the “log K5H” value [1, 6] was 2.80 (1) and the “log K6H” value [1, 6] was 1.38 (1). The “Σ log K2H” value ([1]; I = 0.15 M NaCl, 25 °C) was 13.40, the pMn [2] was 8.37 and the “log KMLH” value [2] was 3.98 (1). The “log KMHLH” value [2] was 3.14 (1), the “log KML” value [2] was 13.20 (1) and the “log KMLOH” value [2] was 10.67 (2). For the same molecule, the “log KMH2LH” value [2] was 2.87 (1).
For `NC(=O)CN1CCN(CC(N)=O)CCN(CC(N)=O)CCN(CC(N)=O)CC1` [DOTAM], the “log K1H” value [1, 6] was 7.31 (1), the “log K2H” value [1, 6] was 6.07 (1) and the “Σ log K2H” value ([1]; I = 0.15 M NaCl, 25 °C) was 13.38. The pMn [2] was 8.60 and the “log KML” value [2] was 11.96 (1).
